Assay results taken from patent publication US9475817B2 (BRISTOL-MYERS SQUIBB COMPANY, priority 2012, dated 2016).

Columns and labels:
CK1δ = CK1δ (Homo sapiens (Human), UniProt P48730); assay: CK1δ kinase assay (Caliper LabChip, fluoresceinated peptide substrate); assay type: biochemical; conditions: 200 pM CK1δ, 50 μM ATP, 1.5 μM peptide substrate, 22 hours room temperature
Protocol: (§1) CK1ε and CK1δ Kinase Assays
(§2) The kinase assay was performed in V-bottom 384-well plates. […] The reaction was incubated at room temperature for 22 hours and terminated by adding 45 μl of 35 mM EDTA to each sample. […] Compounds were dissolved at 10 mM in dimethylsulfoxide (DMSO) and evaluated at eleven concentrations. IC50 values were derived by non-linear regression analysis.

CK1ε = CK1ε (Homo sapiens (Human), UniProt P49674); assay: CK1ε kinase assay (Caliper LabChip, fluoresceinated peptide substrate); assay type: biochemical; conditions: 200 pM CK1ε, 50 μM ATP, 1.5 μM peptide substrate, 22 hours room temperature
Sequence of CK1ε (P49674 whole entry): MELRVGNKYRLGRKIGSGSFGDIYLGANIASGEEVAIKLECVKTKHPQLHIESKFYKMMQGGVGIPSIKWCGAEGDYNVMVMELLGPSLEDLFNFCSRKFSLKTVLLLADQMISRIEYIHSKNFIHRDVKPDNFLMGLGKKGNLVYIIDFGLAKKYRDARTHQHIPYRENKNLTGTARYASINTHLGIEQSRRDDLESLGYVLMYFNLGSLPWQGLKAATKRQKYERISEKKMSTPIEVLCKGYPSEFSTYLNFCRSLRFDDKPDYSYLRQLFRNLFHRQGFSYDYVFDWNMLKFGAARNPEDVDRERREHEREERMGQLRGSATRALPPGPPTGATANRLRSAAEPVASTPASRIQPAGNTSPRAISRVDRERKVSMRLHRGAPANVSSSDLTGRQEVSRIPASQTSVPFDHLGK
Protocol: as §1, §2

Sequence of CK1δ (P48730 whole entry): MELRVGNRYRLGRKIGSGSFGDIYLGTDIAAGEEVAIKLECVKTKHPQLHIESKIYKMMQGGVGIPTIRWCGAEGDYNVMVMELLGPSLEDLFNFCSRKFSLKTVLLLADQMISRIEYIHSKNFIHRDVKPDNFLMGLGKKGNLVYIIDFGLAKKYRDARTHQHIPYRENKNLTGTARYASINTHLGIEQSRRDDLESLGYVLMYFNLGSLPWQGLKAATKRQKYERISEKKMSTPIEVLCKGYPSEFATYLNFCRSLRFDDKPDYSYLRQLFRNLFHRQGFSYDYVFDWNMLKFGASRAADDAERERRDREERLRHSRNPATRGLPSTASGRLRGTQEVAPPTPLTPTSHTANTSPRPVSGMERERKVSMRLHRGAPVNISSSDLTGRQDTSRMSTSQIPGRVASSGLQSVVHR

IC50 (CK1δ) [nM] | IC50 (CK1ε) [nM] | SMILES
0.2 | 1.3 | Cn1nc(-c2ccc(F)cc2)c(-c2ccc3nc(NC(=O)c4ccnc(F)c4)cn3n2)c1N1CCN(CC(N)=O)CC1 [Compound 124, N-(6-(5-(4-(2-Amino-2-oxoethyl)piperazin-1-yl)-3-(4-fluorophenyl)-1-methyl-1H-pyrazol-4-yl)imidazo[1,2-b]pyridazin-2-yl)-2-fluoroisonicotinamide]
0.6 | 4.6 | Cn1nc(-c2ccc(F)cc2)c(-c2ccc3nc(NC(=O)c4ccnc(F)c4)cn3n2)c1N1CCN(CCC#N)CC1 [Compound 125, N-(6-(5-(4-(2-Cyanoethyl)piperazin-1-yl)-3-(4-fluorophenyl)-1-methyl-1H-pyrazol-4-yl)imidazo[1,2-b]pyridazin-2-yl)-2-fluoroisonicotinamide]
2.9 | 124 | Cn1nc(-c2ccc(F)cc2)c(-c2ccc3nc(NC(=O)c4ccnc(F)c4)cn3n2)c1N1CCN(CCS(C)(=O)=O)CC1 [Compound 126, 2-Fluoro-N-(6-(3-(4-fluorophenyl)-1-methyl-5-(4-(2-(methylsulfonyl)ethyl)piperazin-1-yl)-1H-pyrazol-4-yl)imidazo[1,2-b]pyridazin-2-yl)isonicotinamide]
1 | 6.2 | Cn1nc(-c2ccc(F)cc2)c(-c2ccc3nc(NC(=O)c4ccnc(F)c4)cn3n2)c1N1CCN(C[C@@H](O)C(F)(F)F)CC1 [Compound 127, (R)-2-Fluoro-N-(6-(3-(4-fluorophenyl)-1-methyl-5-(4-(3,3,3-trifluoro-2-hydroxypropyl)piperazin-1-yl)-1H-pyrazol-4-yl)imidazo[1,2-b]pyridazin-2-yl)isonicotinamide]
1.5 | 10.6 | Cn1nc(-c2ccc(F)cc2)c(-c2ccc3nc(NC(=O)c4ccnc(F)c4)cn3n2)c1N1CCN(C[C@H](O)C(F)(F)F)CC1 [Compound 128, (S)-2-Fluoro-N-(6-(3-(4-fluorophenyl)-1-methyl-5-(4-(3,3,3-trifluoro-2-hydroxypropyl)piperazin-1-yl)-1H-pyrazol-4-yl)imidazo[1,2-b]pyridazin-2-yl)isonicotinamide]
0.9 | 3.3 | Cn1nc(-c2ccc(F)cc2)c(-c2ccc3nc(NC(=O)c4ccncc4)cn3n2)c1N1CCNCC1 [Compound 129, N-(6-(3-(4-Fluorophenyl)-1-methyl-5-(piperazin-1-yl)-1H-pyrazol-4-yl)imidazo[1,2-b]pyridazin-2-yl)isonicotinamide]
1.4 | 23.5 | Cn1nc(-c2ccc(F)cc2)c(-c2ccc3nc(NC(=O)c4ccncc4)cn3n2)c1N1CCN(CCC(F)(F)F)CC1 [Compound 130, N-(6-(3-(4-Fluorophenyl)-1-methyl-5-(4-(3,3,3-trifluoropropyl)piperazin-1-yl)-1H-pyrazol-4-yl)imidazo[1,2-b]pyridazin-2-yl)isonicotinamide]
0.3 | 3.1 | Cn1nc(-c2ccc(F)cc2)c(-c2ccc3nc(NC(=O)c4ccncc4)cn3n2)c1N1CCN(Cc2ccon2)CC1 [Compound 131, N-(6-(3-(4-Fluorophenyl)-5-(4-(isoxazol-3-ylmethyl)piperazin-1-yl)-1-methyl-1H-pyrazol-4-yl)imidazo[1,2-b]pyridazin-2-yl)isonicotinamide]
0.6 | 6.7 | Cn1nc(-c2ccc(F)cc2)c(-c2ccc3nc(NC(=O)c4ccncc4)cn3n2)c1N1CCN(C(=O)CC(F)(F)F)CC1 [Compound 132, N-(6-(3-(4-Fluorophenyl)-1-methyl-5-(4-(3,3,3-trifluoropropanoyl)piperazin-1-yl)-1H-pyrazol-4-yl)imidazo[1,2-b]pyridazin-2-yl)isonicotinamide]
1 | 8.1 | Cn1nc(-c2ccc(F)cc2)c(-c2ccc3nc(NC(=O)c4ccncc4)cn3n2)c1N1CCN(C(=O)c2ccon2)CC1 [Compound 133, N-(6-(3-(4-Fluorophenyl)-5-(4-(isoxazole-3-carbonyl)piperazin-1-yl)-1-methyl-1H-pyrazol-4-yl)imidazo[1,2-b]pyridazin-2-yl)isonicotinamide]
1.6 | 35 | Cn1nc(-c2ccc(F)cc2)c(-c2ccc3nc(NC(=O)c4ccnc(N5CCOCC5)c4)cn3n2)c1N1CCN(CCC(F)(F)F)CC1 [Compound 135, N-(6-(3-(4-Fluorophenyl)-1-methyl-5-(4-(3,3,3-trifluoropropyl)piperazin-1-yl)-1H-pyrazol-4-yl)imidazo[1,2-b]pyridazin-2-yl)-2-morpholinoisonicotinamide]
0.8 | 12 | Cn1nc(-c2ccc(F)cc2)c(-c2ccc3nc(NC(=O)c4ccnc(N5CCOCC5)c4)cn3n2)c1N1CCN(Cc2ccon2)CC1 [Compound 136, N-(6-(3-(4-Fluorophenyl)-5-(4-(isoxazol-3-ylmethyl)piperazin-1-yl)-1-methyl-1H-pyrazol-4-yl)imidazo[1,2-b]pyridazin-2-yl)-2-morpholinoisonicotinamide]
1 | 10.1 | Cn1nc(-c2ccc(F)cc2)c(-c2ccc3nc(NC(=O)c4ccnc(N5CCOCC5)c4)cn3n2)c1N1CCN(C(=O)c2ccon2)CC1 [Compound 137, N-(6-(3-(4-Fluorophenyl)-5-(4-(isoxazole-3-carbonyl)piperazin-1-yl)-1-methyl-1H-pyrazol-4-yl)imidazo[1,2-b]pyridazin-2-yl)-2-morpholinoisonicotinamide]
1.6 | 9.3 | Cn1nc(-c2ccc(F)cc2)c(-c2ccc3nc(NC(=O)c4ccnc(N5CCOCC5)c4)cn3n2)c1N1CCN(C(=O)CC(F)(F)F)CC1 [Compound 138, N-(6-(3-(4-Fluorophenyl)-1-methyl-5-(4-(3,3,3-trifluoropropanoyl)piperazin-1-yl)-1H-pyrazol-4-yl)imidazo[1,2-b]pyridazin-2-yl)-2-morpholinoisonicotinamide]
1.4 | 9.3 | Cn1nc(-c2ccc(F)cc2)c(-c2ccc3nc(NC(=O)c4ccnc(N5CCOCC5)c4)cn3n2)c1N1CCN(CCCF)CC1 [Compound 139, N-(6-(3-(4-Fluorophenyl)-5-(4-(3-fluoropropyl)piperazin-1-yl)-1-methyl-1H-pyrazol-4-yl)imidazo[1,2-b]pyridazin-2-yl)-2-morpholinoisonicotinamide]
2.5 | 2.4 | Cn1nc(-c2ccc(F)cc2)c(-c2ccc3nc(NC(=O)c4ccnc(N)c4)cn3n2)c1N1CCNCC1 [Compound 140, 2-Amino-N-(6-(3-(4-fluorophenyl)-1-methyl-5-(piperazin-1-yl)-1H-pyrazol-4-yl)imidazo[1,2-b]pyridazin-2-yl)isonicotinamide]
2.5 | 32 | Cn1nc(-c2ccc(F)cc2)c(-c2ccc3nc(NC(=O)c4ccnc(N)c4)cn3n2)c1N1CCN(CCC(F)(F)F)CC1 [Compound 141, 2-Amino-N-(6-(3-(4-fluorophenyl)-1-methyl-5-(4-(3,3,3-trifluoropropyl)piperazin-1-yl)-1H-pyrazol-4-yl)imidazo[1,2-b]pyridazin-2-yl)isonicotinamide]
0.3 | 2.2 | Cn1nc(-c2ccc(F)cc2)c(-c2ccc3nc(NC(=O)c4ccnc(N)c4)cn3n2)c1N1CCN(Cc2ccon2)CC1 [Compound 142, 2-Amino-N-(6-(3-(4-fluorophenyl)-5-(4-(isoxazol-3-ylmethyl)piperazin-1-yl)-1-methyl-1H-pyrazol-4-yl)imidazo[1,2-b]pyridazin-2-yl)isonicotinamide]
1.4 | 22.8 | Cn1nc(-c2ccc(F)cc2)c(-c2ccc3nc(NC(=O)c4cc(F)nc(F)c4)cn3n2)c1N1CCOCC1 [Compound 145, 2,6-difluoro-N-(6-(3-(4-fluorophenyl)-1-methyl-5-morpholino-1H-pyrazol-4-yl)imidazo[1,2-b]pyridazin-2-yl) isonicotinamide]
0.5 | 4.9 | Cc1nc(-c2cccnc2)sc1C(=O)Nc1cn2nc(-c3c(-c4ccc(F)cc4)nn(C)c3N3CCOCC3)ccc2n1 [Compound 146, N-(6-(3-(4-fluorophenyl)-1-methyl-5-morpholino-1H-pyrazol-4-yl)imidazo [1,2-b]pyridazin-2-yl)-4-methyl-2-(pyridin-3-yl)thiazole-5-carboxamide]
0.7 | 7.9 | Cc1nc(-c2ccncc2)sc1C(=O)Nc1cn2nc(-c3c(-c4ccc(F)cc4)nn(C)c3N3CCOCC3)ccc2n1 [Compound 147, N-(6-(3-(4-fluorophenyl)-1-methyl-5-morpholino-1H-pyrazol-4-yl)imidazo [1,2-b]pyridazin-2-yl)-4-methyl-2-(pyridin-4-yl)thiazole-5-carboxamide]
2.1 | 2.6 | Cn1nc(-c2ccc(F)cc2)c(-c2ccc3nc(NC(=O)c4ccnc(F)c4)cn3n2)c1C1CCNCC1 [Compound 148, 2-Fluoro-N-(6-(3-(4-fluorophenyl)-1-methyl-5-(piperidin-4-yl)-1H-pyrazol-4-yl)imidazo[1,2-b]pyridazin-2-yl)isonicotinamide]
1.1 | 1 | Cn1nc(-c2ccc(F)cc2)c(-c2ccc3nc(NC(=O)c4ccnc(F)c4)cn3n2)c1C1CCN(Cc2ccon2)CC1 [Compound 150, 2-Fluoro-N-(6-(3-(4-fluorophenyl)-5-(1-(isoxazol-3-ylmethyl)piperidin-4-yl)-1-methyl-1H-pyrazol-4-yl)imidazo[1,2-b]pyridazin-2-yl)isonicotinamide]
0.5 | 5.7 | Cn1nc(-c2ccc(F)cc2)c(-c2ccc3nc(NC(=O)c4ccnc(F)c4)cn3n2)c1C1CCN(C(=O)CC(F)(F)F)CC1 [Compound 151, 2-Fluoro-N-(6-(3-(4-fluorophenyl)-1-methyl-5-(1-(3,3,3-trifluoropropanoyl)piperidin-4-yl)-1H-pyrazol-4-yl)imidazo[1,2-b]pyridazin-2-yl)isonicotinamide]
